Source: US20120245223A1, “USE OF GYMNODIMINE, ANALOGUES AND DERIVATIVES FOR THE TREATMENT AND/OR PREVENTION OF NEURODEGENERATIVE DISEASES ASSOCIATED WITH TAU AND B-AMYLOID” (priority 2009, published 2012)

How the values were obtained:
cortical neurones = test: Alamar Blue fluorescence viability assay in primary cortical cultures; assay type: cell-based, mouse; details: for Viability of cortical neurones: 72 hours in culture, mean ± standard error, three experiments
From the text: (§1) In order to carry out the experiments of the present invention, either an in vitro cortical neuronal model with simultaneous overexpression of tau and β-amyloid, obtained from a model of Alzheimer's disease in triple-transgenic (3×Tg-AD or 3×Tg) mice, obtainable via the detailed procedure in the international patent application WO2003/053136 and provided by the title holders of this application, or an in vitro cortical neuronal model obtained from non-transgenic (Non Tg) mice.
The primary cortical cultures in the present invention were obtained from 3×Tg-AD mouse embryos of 15-17 days gestation and the wild cultures were obtained from non-3×Tg control mouse embryos of the same strain. The effect of the compounds used in this invention on cellular viability was estimated by a fluorescence assay using the Alamar Blue viability indicator. To carry out the assay, primary cortical cultures seeded on 96-well plates were used. The neuronal cells were incubated with gymnodimine, which was added to the culture medium at different concentrations, and the effect on in vitro neuronal viability at different treatment times was determined. The maximum concentration of gymnodimine evaluated was 100 nM and the concentration of Alamar blue was 10%. The volume of the reaction used was 200 μl. Fluorescence was measured at wavelengths of 530 nm (excitation) and 590 nm (emission).

β-amyloid = test: Western blot of intracellular β-amyloid (6E10 antibody) in 3×Tg-AD cortical cultures; assay type: cell-based, mouse; details: 3×Tg-AD neocortical cultures, 50 nM, 3 to 7 days; p<0.005, n=3
From the text: as §1
(§2) The effect of gymnodimine on overexpression of β-amyloid and tau hyperphosphorylation was determined by the Western blot technique. Primary neuronal cultures were treated with 50 nM gymnodimine for between 3 and 7 days of culture. The cells were then processed following the usual protocols for Western blot. For Western blot studies, protein expression was evaluated using 6E10 anti-β-amyloid primary antibodies at a dilution of 1:500, AT8 anti-Tau (tau phosphorylated on Ser202, dilution 1:1000) and AT100 anti-tau (tau phosphorylated on Thr212 and Ser214, dilution 1:1000). […] Total protein concentration was determined by Bradford's method using bovine albumin as standard. […] The membranes were incubated with the primary antibodies, washed, and then incubated with a secondary antibody linked to HRP; the immunoreactivity was detected by chemiluminescence. […]

[1] = system: tau phosphorylated on Ser202; test: Western blot of tau phosphorylated on Ser202 (AT8 antibody) in 3×Tg-AD cortical cultures; assay type: cell-based, mouse; details: 3×Tg transgenic cultures, 50 nM, 3 to 7 days; p<0.05, n=3
From the text: as §1, §2

[2] = system: tau phosphorylated on Thr212 and Ser214; test: Western blot of tau phosphorylated on Thr212 and Ser214 (AT100 antibody) in 3×Tg-AD cortical cultures; assay type: cell-based, mouse; details: 3×Tg transgenic cultures, 50 nM, 3 to 7 days; p<0.001, n=3
From the text: as §1, §2

total tau = test: Western blot of total tau basal levels (Tau46 antibody) in control neurones; assay type: cell-based, mouse; details: control (non-transgenic) neurones, 50 nM; mean ± standard error, two experiments
Protocol: (§3) The effect of gymnodimine on overexpression of β-amyloid and tau hyperphosphorylation was determined by the Western blot technique. Primary neuronal cultures were treated with 50 nM gymnodimine for between 3 and 7 days of culture. The cells were then processed following the usual protocols for Western blot. For Western blot studies, protein expression was evaluated using 6E10 anti-β-amyloid primary antibodies at a dilution of 1:500, AT8 anti-Tau (tau phosphorylated on Ser202, dilution 1:1000) and AT100 anti-tau (tau phosphorylated on Thr212 and Ser214, dilution 1:1000). For Western blot assays, the neuronal cultures treated with gymnodimine were washed with cold phosphate buffer and lysed in 50 mM Tris-HCl buffer (pH 7.4) containing 150 mM NaCl, 1 mM EDTA, 1% Triton X-100, 2 mM DTT, 2.5 mM PMSF, 40 mg/ml aprotinin, 4 mg/ml leupeptin, 5 mM NaF, 1 mM Na3VO4, 1 mg/ml pepstatin A and 1 mg/ml benzamidine. Total protein concentration was determined by Bradford's method using bovine albumin as standard. […] The membranes were incubated with the primary antibodies, washed, and then incubated with a secondary antibody linked to HRP; the immunoreactivity was detected by chemiluminescence. […]
(§4) The effect of gymnodimine on basal phosphorylation of tau was determined by Western blot techniques. […]

[3] = system: tau phosphorylated on site Ser202; test: Western blot of basal tau phosphorylated on Ser202 in control neurones; assay type: cell-based, mouse; details: control (non-transgenic) neurones, 50 nM
Protocol: as §3, §4

[4] = system: nicotinic acetylcholine receptors; details: blocking effect; Kharrat et al. 2008, Dragunow et al. 2005; cited from earlier work
[5] = cited from earlier work

Structure (SMILES): CC1=C[C@@H](C2=C(C)[C@@H]3/C=C(\C)[C@@H](O)CC[C@H]4C[C@@H](C)[C@@H](O4)/C(C)=C/CCC4=NCCC[C@@]43CC2)OC1=O [Gymnodimine, gymnodimine]
- Viability of cortical neurones (cortical neurones; 2.5 nM): 97.0 ± 4.9 % control
- Viability of cortical neurones (cortical neurones; 5 nM): 102.8 ± 0.3 % control
- Viability of cortical neurones (cortical neurones; 10 nM): 105.6 ± 5.9 % control
- Viability of cortical neurones (cortical neurones; 25 nM): 105.1 ± 1.09 % control
- Viability of cortical neurones (cortical neurones; 50 nM): 102.9 ± 1.4 % control
- Viability of cortical neurones (cortical neurones; 100 nM): 101.8 ± 1.7 % control
- Effect on cell viability (in words) (cortical neurones; up to maximum concentration of 100 nM, neuronal model): does not cause a reduction in cell viability
- Expression of intracellular β-amyloid (Western blot, 6E10) (β-amyloid): significant reduction of overexpression of β-amyloid
- Tau phosphorylation on Ser202 (Western blot, AT8) [1]: significant reduction of tau phosphorylation
- Tau phosphorylation on Thr212 and Ser214 (Western blot, AT100) [2]: significant reduction of tau phosphorylation
- Total tau basal levels (total tau): 111 ± 3.9% control
- Levels of tau phosphorylated on site Ser202 [3]: 95% control
- Binding to nicotinic acetylcholine receptors [4]: high affinity binding
- Toxicity intracerebrally versus intraperitoneally ([5]; introduced intracerebrally compared with intraperitoneally): much higher when it is introduced intracerebrally
- Toxicity when orally administered ([5]; oral administration, Munday et al. 2004): significantly reduced toxicity
